The test system of the experiment is P388 leukemia ip, CD2F1 mice, survival T/C. Briefly: NCI In Vivo Anticancer Drug Screen. Data for tumor model P388 Leukemia (intraperitoneal) in CD2F1 (CDF1) mice. To be noted: endpoint: median survival time, higher = longer survival. In short, it runs like this: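 Mice carrying the transplanted tumor received test compound or vehicle. Survival was recorded in each group, and the value is the treated-group measurement divided by that of the vehicle-treated control group.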

Where [1] appears, read: dose: 6.25 mg/kg/injection, schedule: Q01DX009 (ip), vehicle: saline with Tween-80.
The mark [2] stands for this setting: dose: 12.5 mg/kg/injection, schedule: Q01DX009 (ip), vehicle: saline with Tween-80.
[3] abbreviates: dose: 25.0 mg/kg/injection, schedule: Q01DX009 (ip), vehicle: saline with Tween-80.
The mark [4] stands for this setting: dose: 60.0 mg/kg/injection, schedule: Q01DX005 (ip), vehicle: saline with Tween-80.
Where [5] appears, read: dose: 120.0 mg/kg/injection, schedule: Q01DX005 (ip), vehicle: saline with Tween-80.
[6] abbreviates: dose: 40.0 mg/kg/injection, schedule: Q01DX009 (ip), vehicle: saline with Tween-80.
Setting [7] is: dose: 25.0 mg/kg/injection, schedule: Q01DX009 (ip), vehicle: water.
[8] abbreviates: dose: 50.0 mg/kg/injection, schedule: Q01DX009 (ip), vehicle: water.
The mark [9] stands for this setting: dose: 100.0 mg/kg/injection, schedule: Q01DX009 (ip), vehicle: water.
[10] abbreviates: dose: 50.0 mg/kg/injection, schedule: Q01DX005 (ip), vehicle: saline.
Setting [11] is: dose: 100.0 mg/kg/injection, schedule: Q01DX005 (ip), vehicle: saline.
The mark [12] stands for this setting: dose: 200.0 mg/kg/injection, schedule: Q01DX005 (ip), vehicle: saline.

Values joined by “and” are separate entries in the source; they are usually repeats but may differ in a detail not shown here. Equal values may be shown once. Inconclusive results and toxic doses are left out.

Consider `COC(=O)c1c(OC)cc2cc3c(c(O)c2c1C)C(=O)C1(O)C(=O)C=C(OC)C(OC(=O)CC(C)N)=C1C3=O` (centres undefined), for which the T/C (dose: 25.0 mg/kg/injection, schedule: Q01DX005 (ip), vehicle: water) was 103 % of control; the T/C (dose: 50.0 mg/kg/injection, schedule: Q01DX005 (ip), vehicle: water) is 100 % of control; the T/C (dose: 100.0 mg/kg/injection, schedule: Q01DX005 (ip), vehicle: water) was 104 % of control.
Consider `O=S1(=O)OC(c2ccc(O)c(O)c2)(c2ccc(O)c(O)c2)c2ccccc21`, for which, under “dose: 100.0 mg/kg/injection, schedule: Q01DX009 (ip), vehicle: saline”, the T/C was 100 % of control and 98 % of control.
Regarding `CC1CCCC(NC(=O)N(CCCl)N=O)C1` (centres undefined), the T/C is, setting by setting: (dose: 4.0 mg/kg/injection, schedule: Q04DX003 (ip), vehicle: saline with Tween-80) 118 % of control; under setting [1], 175 % of control; under setting [2], 225 % of control; (dose: 16.0 mg/kg/injection, schedule: Q04DX003 (ip), vehicle: saline with Tween-80) 177 % of control; under setting [3], 272 % of control and 295 % of control; (dose: 25.0 mg/kg/injection, schedule: Q04DX003 (ip), vehicle: saline with Tween-80) 245 % of control. Further, the T/C (dose: 50.0 mg/kg/injection, schedule: Q04DX003 (ip), vehicle: saline with Tween-80) is 118 % of control.
As to `CC1(C)N=C(N)N=C(N)N1CCCCc1ccccc1`, the T/C was 110 % of control (dose: 6.25 mg/kg/injection, schedule: Q01DX005 (ip), vehicle: Klucel (hydroxypropylcellulose) (HPC)); 114 % of control (dose: 12.5 mg/kg/injection, schedule: Q01DX005 (ip), vehicle: Klucel (hydroxypropylcellulose) (HPC)); 118 % of control (dose: 25.0 mg/kg/injection, schedule: Q01DX005 (ip), vehicle: Klucel (hydroxypropylcellulose) (HPC)).
On to `CSc1nc(N)n2nc(C)cc2n1`, for which the T/C is 100 % of control under setting [4]; 100 % of control under setting [5]; 95 % of control (dose: 240.0 mg/kg/injection, schedule: Q01DX005 (ip), vehicle: saline with Tween-80).
For `C=C1CC[C@H]2C(C)=CC[C@H]3C(=C)C(=O)O[C@@H]3[C@@H]12`, the T/C is, setting by setting: (dose: 5.0 mg/kg/injection, schedule: Q01DX009 (ip), vehicle: saline with Tween-80) 90 % of control; (dose: 10.0 mg/kg/injection, schedule: Q01DX009 (ip), vehicle: saline with Tween-80) 91 % of control; (dose: 20.0 mg/kg/injection, schedule: Q01DX009 (ip), vehicle: saline with Tween-80) 97 % of control; under setting [6], 95 % of control; (dose: 100.0 mg/kg/injection, schedule: Q04DX002 (ip), vehicle: saline with Tween-80) 107 % of control; (dose: 200.0 mg/kg/injection, schedule: Q04DX002 (ip), vehicle: saline with Tween-80) 112 % of control. Also, for the setting “dose: 400.0 mg/kg/injection, schedule: Q04DX002 (ip), vehicle: saline with Tween-80”, the T/C was 102 % of control.
For `CCS/C(C#N)=C/c1ccccc1`, the T/C (dose: 50.0 mg/kg/injection, schedule: Q01DX009 (ip), vehicle: saline with Tween-80) was 109 % of control and the T/C (dose: 100.0 mg/kg/injection, schedule: Q01DX009 (ip), vehicle: saline with Tween-80) was 115 % of control.
Regarding `O=C(CSCC(=O)c1ccc([N+](=O)[O-])cc1)c1ccc([N+](=O)[O-])cc1`, the T/C reads like this: (dose: 50.0 mg/kg/injection, schedule: Q01DX005 (ip), vehicle: saline with Tween-80) 94 % of control; (dose: 100.0 mg/kg/injection, schedule: Q01DX005 (ip), vehicle: saline with Tween-80) 96 % of control; (dose: 200.0 mg/kg/injection, schedule: Q01DX005 (ip), vehicle: saline with Tween-80) 87 % of control.
As to `COc1cccc2c1C(=O)c1c(O)c3c(c(O)c1C2=O)CC(O)(C1(O)CSC(C)=N1)CC3O` (centres undefined), the T/C by setting is: (dose: 1.56 mg/kg/injection, schedule: Q01DX009 (ip), vehicle: other) 102 % of control; (dose: 3.13 mg/kg/injection, schedule: Q01DX009 (ip), vehicle: other) 104 % of control; (dose: 6.25 mg/kg/injection, schedule: Q01DX009 (ip), vehicle: other) 104 % of control; (dose: 12.5 mg/kg/injection, schedule: Q01DX009 (ip), vehicle: other) 105 % of control; (dose: 25.0 mg/kg/injection, schedule: Q01DX009 (ip), vehicle: other) 98 % of control; under setting [7], 101 % of control. Besides, the T/C reads like this: under setting [8], 101 % of control; under setting [9], 121 % of control.
Take `CC(=O)C(C(=O)CCSCC(N)C(=O)O)C(SCC(N)C(=O)O)c1ccc(Cl)c(Cl)c1` (centres undefined): the T/C was 103 % of control under setting [10], 103 % of control under setting [11] and 102 % of control under setting [12].
As for `OCC1(CO)C(O)C2CCN1CC2` (centres undefined), the T/C (dose: 100.0 mg/kg/injection, schedule: Q04DX003 (ip), vehicle: Klucel (hydroxypropylcellulose) (HPC)) was 108 % of control; the T/C (dose: 200.0 mg/kg/injection, schedule: Q04DX003 (ip), vehicle: Klucel (hydroxypropylcellulose) (HPC)) is 110 % of control; the T/C (dose: 400.0 mg/kg/injection, schedule: Q04DX003 (ip), vehicle: Klucel (hydroxypropylcellulose) (HPC)) was 108 % of control.
For the compound `CC(C)=CCC1=CC(=O)C(CC=C(C)C)=CC1=O`, the T/C is 105 % of control (dose: 3.12 mg/kg/injection, schedule: Q01DX009 (ip), vehicle: saline with Tween-80); 118 % of control under setting [1]; 100 % of control under setting [2]; 90 % of control and 96 % of control under setting [3].
`O=C(Nc1ccc(N=Nc2ccc3cc(S(=O)(=O)O)cc(S(=O)(=O)O)c3c2)cc1)c1ccc(N=Nc2c(O)ccc3cc(S(=O)(=O)O)cc(S(=O)(=O)O)c23)cc1`: the T/C under setting [10] was 104 % of control, the T/C under setting [11] was 99 % of control and the T/C under setting [12] is 98 % of control.
Take `COc1cc(O)c(O)c(C(C)(C)C)c1`: the T/C was 103 % of control (dose: 3.75 mg/kg/injection, schedule: Q01DX005 (ip), vehicle: saline with Tween-80); 105 % of control (dose: 7.5 mg/kg/injection, schedule: Q01DX005 (ip), vehicle: saline with Tween-80); 108 % of control (dose: 15.0 mg/kg/injection, schedule: Q01DX005 (ip), vehicle: saline with Tween-80); 116 % of control (dose: 30.0 mg/kg/injection, schedule: Q01DX005 (ip), vehicle: saline with Tween-80); 107 % of control under setting [4]; 95 % of control under setting [5].
Regarding `CCCCCCC(=O)N1SC(NC(=O)OC)=Nc2ccccc21`, the T/C runs as follows: (dose: 50.0 mg/kg/injection, schedule: Q01DX005 (ip), vehicle: acetone) 108 % of control; (dose: 100.0 mg/kg/injection, schedule: Q01DX005 (ip), vehicle: acetone) 102 % of control; (dose: 200.0 mg/kg/injection, schedule: Q01DX005 (ip), vehicle: acetone) 102 % of control.
As for `CCSc1nc(Cl)cc(Sc2nc(N)nc3nc[nH]c23)n1`, the T/C runs as follows: (dose: 12.0 mg/kg/injection, schedule: Q01DX009 (ip), vehicle: saline with Tween-80) 90 % of control; (dose: 18.0 mg/kg/injection, schedule: Q01DX009 (ip), vehicle: saline with Tween-80) 90 % of control; (dose: 26.0 mg/kg/injection, schedule: Q01DX009 (ip), vehicle: saline with Tween-80) 100 % of control; under setting [6], 104 % of control; (dose: 60.0 mg/kg/injection, schedule: Q01DX009 (ip), vehicle: saline with Tween-80) 100 % of control; (dose: 88.0 mg/kg/injection, schedule: Q01DX009 (ip), vehicle: saline with Tween-80) 90 % of control. The T/C (dose: 132.0 mg/kg/injection, schedule: Q01DX009 (ip), vehicle: saline with Tween-80) was 86 % of control.
Regarding `O=C(c1cc(-c2ccccc2)nc2ccccc12)n1c(=O)oc(=O)c2cc([N+](=O)[O-])ccc21`, the T/C by setting is: under setting [10], 97 % of control; under setting [11], 101 % of control; under setting [12], 99 % of control.
In the case of `NC(CCS(=O)(=O)NCCCl)C(=O)O` (centres undefined), the T/C is, setting by setting: (dose: 12.5 mg/kg/injection, schedule: Q01DX009 (ip), vehicle: water) 103 % of control; under setting [7], 105 % of control; under setting [8], 104 % of control; under setting [9], 102 % of control; (dose: 200.0 mg/kg/injection, schedule: Q01DX009 (ip), vehicle: water) 105 % of control.

Values taken from PubChem BioAssay AID330 (DTP/NCI, 2004).
